Measured values published in patent US20110171683A1, “METHODS AND COMPOSITIONS FOR ENUMERATING ANTIBIOTIC-RESISTANT MICROORGANISMS” (priority 2008, published 2011).

System: methicillin-resistant Staphylococcus aureus strain 560
Experiment: Colony counts on PETRIFILM plates and blood agar plates containing cefoxitin or oxacillin
Type: cell-based
Details: conclusion in words from Tables 1 and 2
Protocol: PETRIFILM Aerobic Count Plates were obtained from 3M Company (St. Paul, Minn.). DIFCO dehydrated tryptic soy agar (TSA) was obtained from BD Diagnostics (Sparks, Md.). Defibrinated sheep blood was obtained from Remel, Inc. (Lenexa, Kans.).
Phosphate-buffered saline (PBS), pH 7.5, was prepared from a 10× concentrate (OmniPur 6505 buffered saline; EMD Chemicals, Inc.; Gibbstown, N.J.) and was sterilized by autoclaving. Antibiotic stock solutions were prepared in deionized water and were sterilized by passage through a 0.22 μm filter.
Sheep blood agar containing cefoxitin (SBA-Cf) was prepared to compare the recovery of antibiotic resistant microorganisms on agar media to the recovery of the antibiotic-resistant microorganisms in a thin-film culture device. Twenty grams of dehydrated TSA was mixed with 475 mL of deionized water and autoclaved. The molten agar was tempered at 50° C. Twenty-five milliliters of defibrinated sheep blood was added to the agar (to yield a final concentration of 5% sheep blood) and swirled to mix. Cefoxitin stock solution (0.5 mL of 4 mg/mL) was added to the agar and swirled to mix. […]
Bacterial strains were inoculated into tryptic soy broth and were incubated overnight at 37° C. […] All plates were incubated at 35° C. and the colonies on each plate were counted at 24±2 hours and 48±4 hours.

SMILES | Sensitivity or resistance of strain 560 to the antibiotic
CO[C@@]1(NC(=O)Cc2cccs2)C(=O)N2C(C(=O)O)=C(COC(N)=O)CS[C@@H]21 [cefoxitin] | sensitive
Cc1onc(-c2ccccc2)c1C(=O)N[C@@H]1C(=O)N2[C@@H]1SC(C)(C)[C@@H]2C(=O)O [oxacillin] | resistant
